These results are taken from PubChem BioAssay (NCI).

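Following 48 hours of exposure in 96-well plates, responses at five concentrations were used to interpolate endpoints linearly. GI50 marks 50% less growth. TGI denotes the concentration required for complete inhibition of growth.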

Among the test systems are SNB-75 CNS; NCI-H226 lung; NCI-H23 lung; HOP-92 NSCLC; ACHN renal; SW-620 colon; HCT-15 colon; NCI-H460 lung; RXF 393 renal; SK-MEL-28 melanoma.
Holding throughout (assay): growth of human tumour cells (NCI), 48 h

With `CC(=O)Nc1ccc(S(=O)(=O)Nc2nnc(S(N)(=O)=O)s2)cc1`, the TGI with SNB-75 CNS, with NCI-H226 lung, in the assay with NCI-H23 lung, in the assay on HOP-92 NSCLC, with ACHN renal and in the assay with SW-620 colon was over 100 µM throughout. For the same compound, the TGI in the assay on HCT-15 colon, with NCI-H460 lung and in the assay on RXF 393 renal was over 100 µM each time.

Consider `CC(=O)N1N=C(c2c(O)ccc3ccccc23)CC1C(=O)c1ccco1` (stereo unspecified), for which the TGI is over 100 µM with SNB-75 CNS; over 100 µM in the assay on NCI-H226 lung; 84.6 µM in the assay on NCI-H23 lung; over 100 µM in the assay on HOP-92 NSCLC; over 100 µM with SK-MEL-28 melanoma; over 100 µM with ACHN renal. Moreover, the TGI in the assay with SW-620 colon, with HCT-15 colon, in the assay on NCI-H460 lung and with RXF 393 renal was over 100 µM throughout.

With `CC1(C)O[C@H](C(=O)O)[C@@H](C(=O)O)O1`, the TGI in the assay with SNB-75 CNS, in the assay with NCI-H226 lung, in the assay with HOP-92 NSCLC, in the assay with SK-MEL-28 melanoma, in the assay on ACHN renal and in the assay with SW-620 colon was over 100 µM in each case. The TGI with HCT-15 colon, in the assay on NCI-H460 lung and with RXF 393 renal was over 100 µM each time.

For the compound `CC/C(Cl)=N\OC(=O)Nc1ccc(OC)cc1`, the TGI in the assay with SNB-75 CNS turned out to be 19.3 µM; with NCI-H226 lung it was 28.3 µM; with NCI-H23 lung, 38.6 µM; in the assay on HOP-92 NSCLC, 5.98 µM; in the assay with SK-MEL-28 melanoma, 15.1 µM; with ACHN renal, 3.5 µM. Moreover, the TGI with HCT-15 colon was found to be 3.12 µM; with NCI-H460 lung, 44.9 µM; in the assay with RXF 393 renal it was 6.52 µM.

For `O=C(O)Cc1ccc(Oc2nc3ccccc3nc2-c2cccs2)cc1`, the TGI with SNB-75 CNS is 83.2 µM; with NCI-H226 lung it was over 100 µM; in the assay on NCI-H23 lung it was over 100 µM; in the assay with HOP-92 NSCLC it was over 100 µM; in the assay on SK-MEL-28 melanoma, over 100 µM; in the assay on ACHN renal it was over 100 µM. For the same compound, the TGI in the assay with SW-620 colon is over 100 µM; with HCT-15 colon, over 100 µM; with NCI-H460 lung, over 100 µM; with RXF 393 renal, 56.5 µM.

With `Brc1ccc2c(-c3nc(-c4c[nH]c5ccccc45)cs3)c[nH]c2c1`, the TGI in the assay with SNB-75 CNS is over 100 µM; in the assay with NCI-H226 lung, over 100 µM; in the assay with NCI-H23 lung, over 88 µM; in the assay with HOP-92 NSCLC, over 100 µM; in the assay on SK-MEL-28 melanoma, over 93.6 µM; in the assay on ACHN renal it was over 100 µM. The TGI was over 86.8 µM with SW-620 colon, over 100 µM in the assay with HCT-15 colon, over 100 µM with NCI-H460 lung and over 68.7 µM in the assay with RXF 393 renal.

Take `COCn1c2ccc(OC(C)=O)cc2c2c(=O)oc(C)nc21`: the TGI with SNB-75 CNS, in the assay with NCI-H226 lung, with NCI-H23 lung, in the assay with HOP-92 NSCLC, with SK-MEL-28 melanoma and in the assay on ACHN renal was over 100 µM each time. Besides, the TGI with SW-620 colon, in the assay on HCT-15 colon, in the assay with NCI-H460 lung and in the assay with RXF 393 renal was over 100 µM in each case.

`Cc1c(-c2ccccc2)c(C#N)c2nnn(-c3ccccc3)c(=O)n12`: the TGI in the assay with SNB-75 CNS, in the assay on NCI-H226 lung, with NCI-H23 lung, in the assay on HOP-92 NSCLC, in the assay on SK-MEL-28 melanoma and in the assay with ACHN renal was over 100 µM throughout. The TGI in the assay with SW-620 colon, in the assay on HCT-15 colon, with NCI-H460 lung and with RXF 393 renal was over 100 µM each time.

Consider `O=S(=O)(c1ccccc1)n1c(C(O)c2ccncc2)cc2ccccc21` (stereo unspecified), for which the TGI with SNB-75 CNS, with NCI-H226 lung, with NCI-H23 lung, in the assay with HOP-92 NSCLC, with SK-MEL-28 melanoma and in the assay with ACHN renal was over 100 µM in each case. Also, the TGI in the assay on SW-620 colon, in the assay with HCT-15 colon, in the assay with NCI-H460 lung and in the assay on RXF 393 renal was over 100 µM in each case.

In the case of `CN(NC(=O)/C(=C/c1ccc(O)cc1)NC(=O)c1ccccc1)c1ccnc2cc(Cl)ccc12`, the TGI worked out at 22.8 µM with SNB-75 CNS; 32.7 µM in the assay with NCI-H226 lung; 32.2 µM with HOP-92 NSCLC; 38.1 µM in the assay with SK-MEL-28 melanoma; 33 µM with ACHN renal; 47.2 µM in the assay with SW-620 colon. Further, the figures for the TGI in the assay with NCI-H460 lung and in the assay on RXF 393 renal were 31.2 µM and 32 µM, respectively.

Regarding `CC1=NN(c2cccc(Cl)c2)C2(C1)C(Cl)C(=O)N2c1nc2ccccc2s1` (stereo unspecified), the TGI is 67.1 µM with SNB-75 CNS; 43.4 µM with NCI-H226 lung; 49.5 µM in the assay with NCI-H23 lung; 75.6 µM with HOP-92 NSCLC; over 100 µM with ACHN renal; over 100 µM in the assay with SW-620 colon. The TGI in the assay on HCT-15 colon is over 100 µM; in the assay with NCI-H460 lung, over 100 µM; in the assay on RXF 393 renal, 59.1 µM.

`Cc1c(CNc2ccc(Cl)c(C(=O)NC(CC(=O)O)C(=O)O)c2)ccc2nc(N)nc(N)c12` (stereo unspecified): the GI50 with SNB-75 CNS is 122 µM; in the assay on NCI-H226 lung, over 1000 µM; with NCI-H23 lung, 0.357 µM; with HOP-92 NSCLC, 288 µM; with RXF 393 renal, over 1000 µM. For the same compound, the TGI in the assay with SNB-75 CNS, in the assay with NCI-H226 lung, in the assay on NCI-H23 lung, in the assay on HOP-92 NSCLC, in the assay with ACHN renal and in the assay with SW-620 colon was over 1000 µM each time. The TGI in the assay on HCT-15 colon was over 1000 µM; in the assay with NCI-H460 lung, 323 µM; with RXF 393 renal, over 1000 µM.

For `CN(C)N=Nc1ccc([N+](=O)[O-])cc1C(N)=O`, the TGI with SNB-75 CNS, in the assay on NCI-H226 lung, with NCI-H23 lung, in the assay on HOP-92 NSCLC, with SK-MEL-28 melanoma and with SW-620 colon was over 100 µM each time. In addition, the TGI with HCT-15 colon, in the assay on NCI-H460 lung and in the assay with RXF 393 renal was over 100 µM throughout.

Consider `COC(=O)c1c(OC(C)=O)ccc2c1c1c(OC(C)=O)c3ccccc3c(OC(C)=O)c1n2Cc1cc(OC)cc(OC)c1`, for which the TGI is 54.3 µM with SNB-75 CNS; over 100 µM in the assay with NCI-H226 lung; over 100 µM in the assay on NCI-H23 lung; 5.35 µM in the assay on HOP-92 NSCLC; over 100 µM in the assay with SK-MEL-28 melanoma; over 100 µM with ACHN renal. In addition, the TGI with HCT-15 colon, in the assay on NCI-H460 lung and in the assay with RXF 393 renal was over 100 µM each time.
